{
  "source": "paper PMC12454493",
  "about": "“Insight on novel sulfamoylphenyl pyrazole derivatives as anticancer carbonic anhydrase inhibitors” (Molecular Diversity, 2024)",
  "format_in_all_cases": "cell-based",
  "key": {"[1]": {"test_system": "A498", "assay": "NCI-60 one-dose SRB screen (Renal Cancer)", "details": "Homo sapiens, single dose 10 µM, 48 h, read-out: Growth inhibition percent (GI %)", "description": "(§1) The National Cancer Institute (NCI) Developmental Therapeutic Program (www.dtp.nci.nih.gov) selected the 20 novel synthesized compounds 4a-e, 5a-e, 6a-c, 9a-e, 10 and 11 to test for their anticancer activity at a single dose of 10 µM using SRB assay. […] Supplementary Data S3; Table S1 presents the detailed screening results of the most promising compounds. The preliminary screening’s detailed results for the remaining compounds are elucidated in the (Supplementary Data S3; Table S2).\n(§2) The guidelines of the Drug Evaluation Branch’s protocol at the NCI in Bethesda served as the basis for the in vitro anticancer screening assays. at one dose 10 µM against a panel of 60 cancer cell lines. The human tumor cell lines used belonged to nine panels: leukemia, melanoma, lung, colon, CNS, ovarian, renal, prostate and breast cancers using the sulforhodamine B (SRB) assay in a 48 h drug exposure protocol."}, "[2]": {"test_system": "MDA-MB-231/ATCC", "assay": "NCI-60 one-dose SRB screen (Breast Cancer)", "details": "Homo sapiens, single dose 10 µM, 48 h, read-out: Growth inhibition percent (GI %)", "description": "as §1, §2"}, "[3]": {"test_system": "HS 578T", "assay": "NCI-60 one-dose SRB screen (Breast Cancer)", "details": "Homo sapiens, single dose 10 µM, 48 h, read-out: Growth inhibition percent (GI %)", "description": "as §1, §2"}, "[4]": {"test_system": "MCF-7", "assay": "NCI-60 one-dose SRB screen (Breast Cancer)", "details": "Homo sapiens, MCF7, single dose 10 µM, 48 h, read-out: Growth inhibition percent (GI %)", "description": "as §1, §2"}, "[5]": {"test_system": "T-47D", "assay": "NCI-60 one-dose SRB screen (Breast Cancer)", "details": "Homo sapiens, T47D, single dose 10 µM, 48 h, read-out: Growth inhibition percent (GI %)", "description": "as §1, §2"}, "[6]": {"test_system": "BT-549", "assay": "NCI-60 one-dose SRB screen (Breast Cancer)", "details": "Homo sapiens, single dose 10 µM, 48 h, read-out: Growth inhibition percent (GI %)", "description": "as §1, §2"}, "[7]": {"test_system": "MDA-MB-468", "assay": "NCI-60 one-dose SRB screen (Breast Cancer)", "details": "Homo sapiens, single dose 10 µM, 48 h, read-out: Growth inhibition percent (GI %)", "description": "as §1, §2"}, "[8]": {"test_system": "NCI-H522", "assay": "NCI-60 one-dose SRB screen (Non-Small Cell Lung Cancer)", "details": "Homo sapiens, single dose 10 µM, 48 h, read-out: Growth inhibition percent (GI %)", "description": "as §1, §2"}, "[9]": {"test_system": "A549/ATCC", "assay": "NCI-60 one-dose SRB screen (Non-Small Cell Lung Cancer)", "details": "Homo sapiens, single dose 10 µM, 48 h, read-out: Growth inhibition percent (GI %)", "description": "as §1, §2"}, "[10]": {"test_system": "NCI-H460", "assay": "NCI-60 one-dose SRB screen (Non-Small Cell Lung Cancer)", "details": "Homo sapiens, single dose 10 µM, 48 h, read-out: Growth inhibition percent (GI %)", "description": "as §1, §2"}, "[11]": {"test_system": "NCI-H23", "assay": "NCI-60 one-dose SRB screen (Non-Small Cell Lung Cancer)", "details": "Homo sapiens, single dose 10 µM, 48 h, read-out: Growth inhibition percent (GI %)", "description": "as §1, §2"}, "[12]": {"test_system": "NCI-H322M", "assay": "NCI-60 one-dose SRB screen (Non-Small Cell Lung Cancer)", "details": "Homo sapiens, single dose 10 µM, 48 h, read-out: Growth inhibition percent (GI %)", "description": "as §1, §2"}, "[13]": {"test_system": "HOP-62", "assay": "NCI-60 one-dose SRB screen (Non-Small Cell Lung Cancer)", "details": "Homo sapiens, single dose 10 µM, 48 h, read-out: Growth inhibition percent (GI %)", "description": "as §1, §2"}, "[14]": {"test_system": "HOP-92", "assay": "NCI-60 one-dose SRB screen (Non-Small Cell Lung Cancer)", "details": "Homo sapiens, single dose 10 µM, 48 h, read-out: Growth inhibition percent (GI %)", "description": "as §1, §2"}, "[15]": {"test_system": "NCI-H226", "assay": "NCI-60 one-dose SRB screen (Non-Small Cell Lung Cancer)", "details": "Homo sapiens, single dose 10 µM, 48 h, read-out: Growth inhibition percent (GI %)", "description": "as §1, §2"}, "[16]": {"test_system": "EKVX", "assay": "NCI-60 one-dose SRB screen (Non-Small Cell Lung Cancer)", "details": "Homo sapiens, single dose 10 µM, 48 h, read-out: Growth inhibition percent (GI %)", "description": "as §1, §2"}, "[17]": {"test_system": "SF-295", "assay": "NCI-60 one-dose SRB screen (CNS Cancer)", "details": "Homo sapiens, single dose 10 µM, 48 h, read-out: Growth inhibition percent (GI %)", "description": "as §1, §2"}, "[18]": {"test_system": "SF-268", "assay": "NCI-60 one-dose SRB screen (CNS Cancer)", "details": "Homo sapiens, single dose 10 µM, 48 h, read-out: Growth inhibition percent (GI %)", "description": "as §1, §2"}, "[19]": {"test_system": "SNB-75", "assay": "NCI-60 one-dose SRB screen (CNS Cancer)", "details": "Homo sapiens, single dose 10 µM, 48 h, read-out: Growth inhibition percent (GI %)", "description": "as §1, §2"}, "[20]": {"test_system": "SF-539", "assay": "NCI-60 one-dose SRB screen (CNS Cancer)", "details": "Homo sapiens, single dose 10 µM, 48 h, read-out: Growth inhibition percent (GI %)", "description": "as §1, §2"}, "[21]": {"test_system": "SNB-19", "assay": "NCI-60 one-dose SRB screen (CNS Cancer)", "details": "Homo sapiens, single dose 10 µM, 48 h, read-out: Growth inhibition percent (GI %)", "description": "as §1, §2"}, "[22]": {"test_system": "U251", "assay": "NCI-60 one-dose SRB screen (CNS Cancer)", "details": "Homo sapiens, U-251, single dose 10 µM, 48 h, read-out: Growth inhibition percent (GI %)", "description": "as §1, §2"}, "[23]": {"test_system": "PC-3", "assay": "NCI-60 one-dose SRB screen (Prostate Cancer)", "details": "Homo sapiens, single dose 10 µM, 48 h, read-out: Growth inhibition percent (GI %)", "description": "as §1, §2"}, "[24]": {"test_system": "DU-145", "assay": "NCI-60 one-dose SRB screen (Prostate Cancer)", "details": "Homo sapiens, single dose 10 µM, 48 h, read-out: Growth inhibition percent (GI %)", "description": "as §1, §2"}, "[25]": {"test_system": "HL-60(TB)", "assay": "NCI-60 one-dose SRB screen (Leukemia)", "details": "Homo sapiens, single dose 10 µM, 48 h, read-out: Growth inhibition percent (GI %)", "description": "as §1, §2"}, "[26]": {"test_system": "RPMI-8226", "assay": "NCI-60 one-dose SRB screen (Leukemia)", "details": "Homo sapiens, single dose 10 µM, 48 h, read-out: Growth inhibition percent (GI %)", "description": "as §1, §2"}, "[27]": {"test_system": "SR", "assay": "NCI-60 one-dose SRB screen (Leukemia)", "details": "Homo sapiens, single dose 10 µM, 48 h, read-out: Growth inhibition percent (GI %)", "description": "as §1, §2"}, "[28]": {"test_system": "CCRF-CEM", "assay": "NCI-60 one-dose SRB screen (Leukemia)", "details": "Homo sapiens, single dose 10 µM, 48 h, read-out: Growth inhibition percent (GI %)", "description": "as §1, §2"}, "[29]": {"test_system": "K-562", "assay": "NCI-60 one-dose SRB screen (Leukemia)", "details": "Homo sapiens, K562, single dose 10 µM, 48 h, read-out: Growth inhibition percent (GI %)", "description": "as §1, §2"}, "[30]": {"test_system": "MOLT-4", "assay": "NCI-60 one-dose SRB screen (Leukemia)", "details": "Homo sapiens, single dose 10 µM, 48 h, read-out: Growth inhibition percent (GI %)", "description": "as §1, §2"}},
  "data": [
    {"molecule": "Cc1ccc(-c2nn(-c3ccc(S(N)(=O)=O)cc3)cc2C(=O)OCC(=O)Nc2ccc(S(N)(=O)=O)cc2)cc1", "note": "[Compound 4b, 2-Oxo-2-[(4-sulfamoylphenyl)amino] ethyl 1-(4-sulfamoylphenyl)-3-(p-tolyl)-1H-pyrazole-4-carboxylate]", "values": [
      {"measurement": "inhibition at 10 µM", "setting": "[1]", "result": "< 5", "unit": "%"},
      {"measurement": "inhibition at 10 µM", "setting": "[2]", "result": 6.64, "unit": "%"},
      {"measurement": "inhibition at 10 µM", "setting": "[3]", "result": 6.42, "unit": "%"},
      {"measurement": "inhibition at 10 µM", "setting": "[4]", "result": "< 5", "unit": "%"},
      {"measurement": "inhibition at 10 µM", "setting": "[5]", "result": 17.5, "unit": "%"},
      {"measurement": "inhibition at 10 µM", "setting": "[6]", "result": 6.7, "unit": "%"},
      {"measurement": "inhibition at 10 µM", "setting": "[7]", "result": 18.6, "unit": "%"},
      {"measurement": "inhibition at 10 µM", "setting": "[8]", "result": 25.6, "unit": "%"},
      {"measurement": "inhibition at 10 µM", "setting": "[9]", "result": 7.63, "unit": "%"},
      {"measurement": "inhibition at 10 µM", "setting": "[10]", "result": "< 5", "unit": "%"},
      {"measurement": "inhibition at 10 µM", "setting": "[11]", "result": "< 5", "unit": "%"},
      {"measurement": "inhibition at 10 µM", "setting": "[12]", "result": 6.16, "unit": "%"},
      {"measurement": "inhibition at 10 µM", "setting": "[13]", "result": "< 5", "unit": "%"},
      {"measurement": "inhibition at 10 µM", "setting": "[14]", "result": "< 5", "unit": "%"},
      {"measurement": "inhibition at 10 µM", "setting": "[15]", "result": "< 5", "unit": "%"},
      {"measurement": "inhibition at 10 µM", "setting": "[16]", "result": "< 5", "unit": "%"},
      {"measurement": "inhibition at 10 µM", "setting": "[17]", "result": "< 5", "unit": "%"},
      {"measurement": "inhibition at 10 µM", "setting": "[18]", "result": 10.3, "unit": "%"},
      {"measurement": "inhibition at 10 µM", "setting": "[19]", "result": "< 5", "unit": "%"},
      {"measurement": "inhibition at 10 µM", "setting": "[20]", "result": 20.3, "unit": "%"},
      {"measurement": "inhibition at 10 µM", "setting": "[21]", "result": "< 5", "unit": "%"},
      {"measurement": "inhibition at 10 µM", "setting": "[22]", "result": "< 5", "unit": "%"},
      {"measurement": "inhibition at 10 µM", "setting": "[23]", "result": "< 5", "unit": "%"},
      {"measurement": "inhibition at 10 µM", "setting": "[24]", "result": "< 5", "unit": "%"},
      {"measurement": "inhibition at 10 µM", "setting": "[25]", "result": 5.09, "unit": "%"},
      {"measurement": "inhibition at 10 µM", "setting": "[26]", "result": "< 5", "unit": "%"},
      {"measurement": "inhibition at 10 µM", "setting": "[27]", "result": 30.2, "unit": "%"},
      {"measurement": "inhibition at 10 µM", "setting": "[28]", "result": "< 5", "unit": "%"},
      {"measurement": "inhibition at 10 µM", "setting": "[29]", "result": 7.16, "unit": "%"},
      {"measurement": "inhibition at 10 µM", "setting": "[30]", "result": "< 5", "unit": "%"}
    ]}
  ]
}
